Where two headings read alike, the source gives them in different places.
How the values were obtained:
CB1 receptor = conditions: ref Hill et al., cited from earlier work
[1] = tested on: endocannabinoids AEA and 2-AG; test: Plasma endocannabinoid content; assay type: in vivo, rat; conditions: imipramine 10 mg/kg, 21 days; p > 0.05
[2] = tested on: endocannabinoids AEA and 2-AG; test: Brain tissue endocannabinoid content; conditions: imipramine alone; any brain region examined
[3] = target: T1, fatty acid amide hydrolase (FAAH) (Rattus norvegicus, UniProt P97612); test: Fatty acid amide hydrolase activity assay; assay type: in vivo; conditions: for effect on Vmax of FAAH: combination of CUS and imipramine, p < 0.05; for Km: read-out: binding affinity (Km) of fatty acid amide hydrolase for anandamide
T1 sequence (P97612 1-579): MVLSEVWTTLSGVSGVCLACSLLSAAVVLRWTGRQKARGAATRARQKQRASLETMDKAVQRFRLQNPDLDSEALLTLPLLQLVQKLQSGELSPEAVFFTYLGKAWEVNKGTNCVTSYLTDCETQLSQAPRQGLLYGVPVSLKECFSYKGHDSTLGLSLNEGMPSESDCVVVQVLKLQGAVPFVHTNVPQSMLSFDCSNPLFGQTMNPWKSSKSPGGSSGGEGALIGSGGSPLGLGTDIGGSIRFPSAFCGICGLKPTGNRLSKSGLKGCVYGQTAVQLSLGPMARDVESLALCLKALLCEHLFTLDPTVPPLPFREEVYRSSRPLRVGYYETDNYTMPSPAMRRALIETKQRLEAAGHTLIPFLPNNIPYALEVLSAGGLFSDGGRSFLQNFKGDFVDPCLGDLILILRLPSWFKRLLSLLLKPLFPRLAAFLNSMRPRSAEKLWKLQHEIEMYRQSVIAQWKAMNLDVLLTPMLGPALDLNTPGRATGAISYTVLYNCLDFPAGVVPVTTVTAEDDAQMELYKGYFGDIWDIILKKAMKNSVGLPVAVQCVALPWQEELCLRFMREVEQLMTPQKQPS

cannabinoid CB1 receptor = cannabinoid CB1 receptor (Rattus norvegicus, UniProt P20272); test: CB1 receptor binding assay; assay type: in vivo; conditions: for effect on Bmax of the CB1 receptor: imipramine alone
Chain of cannabinoid CB1 receptor (P20272 whole entry): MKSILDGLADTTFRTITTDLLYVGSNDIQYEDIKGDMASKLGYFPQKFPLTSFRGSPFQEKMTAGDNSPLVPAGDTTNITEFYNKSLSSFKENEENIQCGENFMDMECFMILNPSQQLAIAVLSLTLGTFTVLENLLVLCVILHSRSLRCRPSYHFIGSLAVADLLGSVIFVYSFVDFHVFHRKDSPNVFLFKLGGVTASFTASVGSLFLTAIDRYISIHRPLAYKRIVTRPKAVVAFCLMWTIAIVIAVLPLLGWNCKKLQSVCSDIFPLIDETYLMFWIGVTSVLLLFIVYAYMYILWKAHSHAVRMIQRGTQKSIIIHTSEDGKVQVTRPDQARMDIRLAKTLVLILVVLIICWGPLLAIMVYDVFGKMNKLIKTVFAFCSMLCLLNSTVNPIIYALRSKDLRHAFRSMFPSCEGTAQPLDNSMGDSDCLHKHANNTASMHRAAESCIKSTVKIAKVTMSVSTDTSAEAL

In the case of `C[C@]12C[C@H](O)[C@H]3[C@@H](CCC4=CC(=O)CC[C@@]43C)[C@@H]1CC[C@@H]2C(=O)CO` [corticosterone], the “effect on CB1 receptor binding and protein expression” value (CB1 receptor; hippocampus, 21 days administration, absence of stress, 2008a) is given as “comparable reduction”.
For `CNCCCN1c2ccccc2CCc2ccccc21` [desipramine], the “effect on CB1 receptor binding” value (CB1 receptor; hippocampus of unstressed rats, 2006) is listed as “up-regulation” and the “effect on CB1 receptor agonist binding site density” value (CB1 receptor; hypothalamus, unstressed rats, chronic treatment, 2006) is listed as “increases”.
With `CN(C)CCCN1c2ccccc2CCc2ccccc21` [imipramine] the “effect on plasma 2-AG content” value [1] was “unaffected”, the “effect on plasma AEA content” value [1] was “neither an effect” and the “effect on tissue AEA content” value [2] was “no effect”. For the same molecule, the “effect on maximal hydrolytic activity (Vmax) of FAAH” value ([3]; imipramine alone, any brain region examined) was “no effects”, the “effect on Vmax of FAAH” value ([3]; midbrain) was “increased” and the Km ([3]; Amygdala, CON/IMI (no stress, imipramine 10 mg/kg, 21 days)) was 0.95 nM. It also gave a Km ([3]; Amygdala, CUS/IMI (21 days CUS + imipramine 10 mg/kg)) of 0.53 nM, a Km ([3]; Hippocampus, CON/IMI (no stress, imipramine 10 mg/kg, 21 days)) of 0.8 nM and a Km ([3]; Hippocampus, CUS/IMI (21 days CUS + imipramine 10 mg/kg)) of 0.71 nM. The Km ([3]; Hypothalamus, CON/IMI (no stress, imipramine 10 mg/kg, 21 days)) was 0.44 nM, the Km ([3]; Hypothalamus, CUS/IMI (21 days CUS + imipramine 10 mg/kg)) was 0.55 nM and the Km ([3]; Midbrain, CON/IMI (no stress, imipramine 10 mg/kg, 21 days)) was 0.6 nM. For the same molecule, the Km ([3]; Midbrain, CUS/IMI (21 days CUS + imipramine 10 mg/kg)) was 0.61 nM, the Km ([3]; Prefrontal Cortex, CON/IMI (no stress, imipramine 10 mg/kg, 21 days)) was 0.65 nM and the Km ([3]; Prefrontal Cortex, CUS/IMI (21 days CUS + imipramine 10 mg/kg)) was 0.46 nM. The Km ([3]; Ventral Striatum, CON/IMI (no stress, imipramine 10 mg/kg, 21 days)) was 0.37 nM, the Km ([3]; Ventral Striatum, CUS/IMI (21 days CUS + imipramine 10 mg/kg)) was 0.69 nM and the “effect on Vmax of FAAH” value ([3]; ventral striatum) was “increased”. The “effect on Bmax of the CB1 receptor (increase)” value (cannabinoid CB1 receptor; amygdala, CUS and imipramine combined, p > 0.05) was “did not occur”, the “effect on Bmax of the CB1 receptor” value (cannabinoid CB1 receptor; amygdala, p < 0.05) was “increase” and the “effect on CB1 receptor agonist binding site density (Bmax)” value (cannabinoid CB1 receptor; hippocampus, imipramine 10 mg/kg, 21 days (ANOVA main effect)) was “unaffected”. The “effect on Bmax for [3H]CP55940 binding to the CB1 receptor” value (cannabinoid CB1 receptor; hypothalamus, CUS and imipramine together vs control, p > 0.05) was “no significant difference”, the “effect on CB1 receptor binding site density (Bmax)” value (cannabinoid CB1 receptor; midbrain, imipramine 10 mg/kg, 21 days, p < 0.05) was “significant reduction” and the “effect on agonist binding site density (Bmax) of the CB1 receptor” value (cannabinoid CB1 receptor; prefrontal cortex, imipramine 10 mg/kg, 21 days (ANOVA main effect)) was “no effect”. For the same molecule, the “effect on Bmax of the CB1 receptor (reduction)” value (cannabinoid CB1 receptor; ventral striatum, CUS and imipramine concurrently, p > 0.05) was “not seen” and the “effect on Bmax of the CB1 receptor” value (cannabinoid CB1 receptor; ventral striatum, p < 0.01) was “significant reductions”.
